Experimental data reported in US7385026B1, “Modified ghrelin polypeptides” (priority 1999, dated 2008).
Square brackets hold non-standard residues; d marks the D form. Peptide text beside a SMILES is read from it. * marks the point of attachment. Octanoyl = CCCCCCCC(=O)*; Aib = CC(C)(N)C(=O)O; Octyl = CCCCCCCC*

target: T1, rat GHS-receptor (GHR-R) (Rattus norvegicus, UniProt O08725); test: Ca-releasing activity (increase in intracellular calcium) in CHO-GHSR62 cells, FLIPR; type: cell-based; settings: not given
T1 construct: A full-length cDNA for rat GHR-R was obtained by RT-PCR; expressed in transfected cells
Procedure, shortened: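 CHO cells stably expressing full-length rat GHS-R (CHO-GHSR62) were cultured 12–15 h, loaded with 4 μM Fluo4 for 1 h and washed with Hank's BSS containing 20 mM Hepes and 2.5 mM probenecid. Ca-releasing activity of ghrelin peptides, fragments or derivatives was read by FLIPR as the fluorescence change after sample addition.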

T1 sequence (O08725 whole entry): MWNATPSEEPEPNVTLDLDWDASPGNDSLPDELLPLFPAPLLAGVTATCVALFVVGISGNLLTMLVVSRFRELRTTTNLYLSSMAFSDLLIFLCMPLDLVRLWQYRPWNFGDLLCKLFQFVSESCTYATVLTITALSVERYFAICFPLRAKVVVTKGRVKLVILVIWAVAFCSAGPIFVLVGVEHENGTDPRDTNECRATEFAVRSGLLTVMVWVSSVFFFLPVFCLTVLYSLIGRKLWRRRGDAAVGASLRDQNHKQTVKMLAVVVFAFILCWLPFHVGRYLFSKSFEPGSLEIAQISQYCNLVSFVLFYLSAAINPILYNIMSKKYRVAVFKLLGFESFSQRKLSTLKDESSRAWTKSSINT

Compound	Ca-releasing activity relative to ghrelin (1-4) before addition of lysine
CCCCCCCC(=O)OC[C@H](NC(=O)[C@H](CO)NC(=O)CN)C(=O)N[C@@H](Cc1ccccc1)C(=O)N[C@@H](CCCCN)C(N)=O [Compound 38, [Lys^5]-Ghrelin (1-5)-amide] (H-GSS(Octanoyl)FK-NH2)	about 50 times

same assay, conditions: CHO-GHSR62 cells

Compound	Ca-releasing activity (in words)
GHRH: GH releasing hormone, expressed as GRF in FIG. 3a [reference compound]	did not exhibit the Ca-releasing activity

same assay, conditions: CHO-GHSR62 cells (CHO cells expressing rat GHS receptor), FLIPR; read-out: Ca-releasing activity EC50

Compound	EC50
CCCCCCCC(=O)OC[C@H](NC(=O)[C@H](CO)NC(=O)CN)C(=O)N[C@@H](Cc1ccccc1)C(=O)O [Compound 33-1, Ghrelin (1-4)] (H-GSS(Octanoyl)F-OH)	480 nM
CC(C)C[C@H](NC(=O)[C@H](CCCCN)NC(=O)[C@H](C)NC(=O)[C@@H]1CCCN1C(=O)[C@@H]1CCCN1C(=O)[C@H](CCCCN)NC(=O)[C@H](CCCCN)NC(=O)[C@H](CO)NC(=O)[C@H](CCC(=O)O)NC(=O)[C@H](CCCCN)NC(=O)[C@H](CCCNC(=N)N)NC(=O)[C@H](CCC(N)=O)NC(=O)[C@H](CCC(N)=O)NC(=O)[C@@H](NC(=O)[C@H](CCCNC(=N)N)NC(=O)[C@H](CCC(N)=O)NC(=O)[C@H](Cc1c[nH]cn1)NC(=O)[C@H](CCC(=O)O)NC(=O)[C@@H]1CCCN1C(=O)[C@H](CO)NC(=O)[C@H](CC(C)C)NC(=O)[C@H](Cc1ccccc1)NC(=O)[C@H](CCCCN)NC(=O)[C@H](CO)NC(=O)CN)C(C)C)C(=O)N[C@@H](CCC(N)=O)C(=O)N1CCC[C@H]1C(=O)N[C@@H](CCCNC(=N)N)C(=O)O [Compound 72, [Lys^3]-hGhrelin]	120 nM
CC(C)C[C@H](NC(=O)[C@H](CCCCN)NC(=O)[C@H](C)NC(=O)[C@@H]1CCCN1C(=O)[C@@H]1CCCN1C(=O)[C@H](CCCCN)NC(=O)[C@H](CCCCN)NC(=O)[C@H](CO)NC(=O)[C@H](CCC(=O)O)NC(=O)[C@H](CCCCN)NC(=O)[C@H](CCCNC(=N)N)NC(=O)[C@H](CCC(N)=O)NC(=O)[C@H](CCC(N)=O)NC(=O)[C@@H](NC(=O)[C@H](CCCNC(=N)N)NC(=O)[C@H](CCC(N)=O)NC(=O)[C@H](Cc1c[nH]cn1)NC(=O)[C@H](CCC(=O)O)NC(=O)[C@@H]1CCCN1C(=O)[C@H](CO)NC(=O)[C@H](CC(C)C)NC(=O)[C@H](Cc1ccccc1)NC(=O)[C@H](Cc1c[nH]c2ccccc12)NC(=O)[C@H](CO)NC(=O)CN)C(C)C)C(=O)N[C@@H](CCC(N)=O)C(=O)N1CCC[C@H]1C(=O)N[C@@H](CCCNC(=N)N)C(=O)O [Compound 62, [Trp^3]-hGhrelin]	31 nM
CCCCCCCCOC[C@H](NC(=O)[C@H](Cc1c[nH]cn1)NC(=O)C(C)(C)N)C(=O)N[C@@H](Cc1ccccc1)C(=O)N[C@@H](CCCCN)C(N)=O [Compound 78, [Aib^1, His^2, Ser^3(Octyl), Lys^5]-Ghrelin (1-5)-amide] (H-[Aib]HS(Octyl)FK-NH2)	34 nM
CCCCCCCC(=O)OC[C@H](NC(=O)[C@H](CCCCN)NC(=O)CN)C(=O)N[C@@H](Cc1ccccc1)C(=O)N[C@@H](CC(C)C)C(=O)N[C@@H](CO)C(=O)N1CCC[C@H]1C(N)=O [Compound 46, [Lys^2]-Ghrelin (1-7)-amide] (H-GKS(Octanoyl)FLSP-NH2)	24 nM
CCCCCCCC(=O)OC[C@H](NC(=O)[C@H](CO)NC(=O)CN)C(=O)N[C@@H](Cc1ccccc1)C(=O)N[C@@H](CCCCN)C(N)=O [Compound 38, [Lys^5]-Ghrelin (1-5)-amide] (H-GSS(Octanoyl)FK-NH2)	10 nM
CCCCCCCC(=O)OC[C@H](NC(=O)[C@H](CO)NC(=O)CN)C(=O)N[C@@H](Cc1ccccc1)C(=O)N[C@@H](CC(C)C)C(=O)N[C@@H](CO)C(=O)N1CCC[C@H]1C(=O)N[C@@H](CCC(=O)O)C(=O)N[C@@H](Cc1c[nH]cn1)C(=O)O [Compound 26, Ghrelin (1-9)] (H-GSS(Octanoyl)FLSPEH-OH)	38 nM
CCCCCCCC(=O)OC[C@H](NC(=O)[C@H](CO)NC(=O)CN)C(N)=O [Compound 34, Ghrelin (1-3)-amide] (H-Gly-Ser-Ser(Octanoyl)-NH2)	> 10000 nM
CCCCCCCCOC[C@H](NC(=O)CCCCN)C(=O)N[C@@H](Cc1ccccc1)C(=O)N[C@@H](CC(C)C)C(=O)NCc1ccccc1 [Compound 84, [N-Aminopentanoyl, Ser^3(Octyl)]-Ghrelin (3-5)-benzylamide]	98 nM
CCCCCCCCOC[C@H](NC(=O)CCCCN)C(=O)N[C@@H](Cc1ccccc1)C(=O)N[C@@H](CC(C)C)C(=O)NCC [Compound 83, [N-Aminopentanoyl, Ser^3(Octyl)]-Ghrelin (3-5)-ethylamide]	22 nM
CCCCCCCC(=O)OC[C@H](NC(=O)[C@H](CO)NC(=O)CN)C(=O)N[C@@H](Cc1ccccc1)C(=O)N[C@@H](CC(C)C)C(=O)N[C@@H](CO)C(=O)N1CCC[C@H]1C(=O)N[C@@H](CCCNC(=N)N)C(N)=O [Compound 36, [Arg^8]-Ghrelin (1-8)-amide] (H-GSS(Octanoyl)FLSPR-NH2)	1.1 nM
CC(C)C[C@H](NC(=O)[C@H](CCCCN)NC(=O)[C@H](C)NC(=O)[C@@H]1CCCN1C(=O)[C@@H]1CCCN1C(=O)[C@H](CCCCN)NC(=O)[C@H](CCCCN)NC(=O)[C@H](CO)NC(=O)[C@H](CCC(=O)O)NC(=O)[C@H](CCCCN)NC(=O)[C@H](CCCNC(=N)N)NC(=O)[C@H](CCC(N)=O)NC(=O)[C@H](CCC(N)=O)NC(=O)[C@@H](NC(=O)[C@H](CCCNC(=N)N)NC(=O)[C@H](CCC(N)=O)NC(=O)[C@H](Cc1c[nH]cn1)NC(=O)[C@H](CCC(=O)O)NC(=O)[C@@H]1CCCN1C(=O)[C@H](CO)NC(=O)[C@H](CC(C)C)NC(=O)[C@H](Cc1ccccc1)NC(=O)[C@@H](NC(=O)[C@H](CO)NC(=O)CN)C(C)C)C(C)C)C(=O)N[C@@H](CCC(N)=O)C(=O)N1CCC[C@H]1C(=O)N[C@@H](CCCNC(=N)N)C(=O)O [Compound 74, [Val^3]-hGhrelin]	1600 nM
CCCCCCCC(=O)OC[C@H](NC(=O)[C@H](CO)NC(=O)CN)C(=O)N[C@@H](Cc1ccccc1)C(=O)N[C@@H](CC(C)C)C(=O)N[C@@H](CCCCN)C(N)=O [Compound 37, [Lys^6]-Ghrelin (1-6)-amide] (H-GSS(Octanoyl)FLK-NH2)	12 nM

same assay, conditions: Ca-releasing activity (EC50, nM), Table 3, Example 9: protease fragments or synthetic peptides; CHO-GHSR62 cells

Compound	EC50
CCCCCCCC(=O)OC[C@H](NC(=O)[C@H](CO)NC(=O)CN)C(=O)N[C@@H](Cc1ccccc1)C(=O)N[C@@H](CC(C)C)C(=O)N[C@@H](CO)C(=O)N1CCC[C@H]1C(=O)N[C@@H](CCC(=O)O)C(=O)N[C@@H](Cc1cnc[nH]1)C(=O)N[C@@H](CCC(N)=O)C(=O)N[C@@H](CCCNC(=N)N)C(=O)N[C@H](C(=O)N[C@@H](CCC(N)=O)C(=O)N[C@@H](CCC(N)=O)C(=O)N[C@@H](CCCNC(=N)N)C(=O)N[C@@H](CCCCN)C(=O)N[C@@H](CCC(=O)O)C(=O)N[C@@H](CO)C(=O)N[C@@H](CCCCN)C(=O)N[C@@H](CCCCN)C(=O)N1CCC[C@H]1C(=O)N1CCC[C@H]1C(=O)N[C@@H](C)C(=O)N[C@@H](CCCCN)C(=O)N[C@@H](CC(C)C)C(=O)N[C@@H](CCC(N)=O)C(=O)N1CCC[C@H]1C(=O)N[C@@H](CCCNC(=N)N)C(=O)O)C(C)C [Compound 1, human Ghrelin]	2.6 nM

same assay, conditions: Ca-releasing activity EC50, CHO-GHSR62 cells (CHO cells expressing rat GHS receptor), FLIPR

Compound	EC50
CCCCCCCC(=O)OC[C@H](NC(=O)[C@H](CO)NC(=O)CN)C(=O)N[C@@H](Cc1ccccc1)C(=O)N[C@@H](CC(C)C)C(=O)N[C@@H](CO)C(=O)N1CCC[C@H]1C(=O)N[C@@H](CCC(=O)O)C(=O)N[C@@H](Cc1cnc[nH]1)C(=O)N[C@@H](CCC(N)=O)C(=O)N[C@@H](CCCNC(=N)N)C(=O)N[C@H](C(=O)N[C@@H](CCC(N)=O)C(=O)N[C@@H](CCC(N)=O)C(=O)N[C@@H](CCCNC(=N)N)C(=O)N[C@@H](CCCCN)C(=O)N[C@@H](CCC(=O)O)C(=O)N[C@@H](CO)C(=O)N[C@@H](CCCCN)C(=O)N[C@@H](CCCCN)C(=O)N1CCC[C@H]1C(=O)N1CCC[C@H]1C(=O)N[C@@H](C)C(=O)N[C@@H](CCCCN)C(=O)N[C@@H](CC(C)C)C(=O)N[C@@H](CCC(N)=O)C(=O)N1CCC[C@H]1C(=O)N[C@@H](CCCNC(=N)N)C(=O)O)C(C)C [Compound 1, human Ghrelin]	1.3 nM

same assay, conditions: Table 3, Example 9: protease fragments or synthetic peptides; CHO-GHSR62 cells; read-out: Ca-releasing activity (EC50)

Compound	EC50
CCCCCCCC(=O)OC[C@H](NC(=O)[C@H](CO)NC(=O)CN)C(=O)N[C@@H](Cc1ccccc1)C(=O)N[C@@H](CC(C)C)C(=O)N[C@@H](CO)C(=O)N1CCC[C@H]1C(=O)N[C@@H](CCC(=O)O)C(=O)N[C@@H](Cc1c[nH]cn1)C(=O)N[C@@H](CCC(N)=O)C(=O)N[C@@H](CCCCN)C(=O)O [Compound 24, rGbrelin (1-11)]	15 nM
